Consider 14 compounds from ChEMBL document CHEMBL1201862, “PubChem BioAssay data set” (2004).

The source made the active and inactive calls.

Test [1] has as its target T1, DNA repair protein RAD52 homolog (Homo sapiens, UniProt P43351).
T1 sequence (P43351 whole entry): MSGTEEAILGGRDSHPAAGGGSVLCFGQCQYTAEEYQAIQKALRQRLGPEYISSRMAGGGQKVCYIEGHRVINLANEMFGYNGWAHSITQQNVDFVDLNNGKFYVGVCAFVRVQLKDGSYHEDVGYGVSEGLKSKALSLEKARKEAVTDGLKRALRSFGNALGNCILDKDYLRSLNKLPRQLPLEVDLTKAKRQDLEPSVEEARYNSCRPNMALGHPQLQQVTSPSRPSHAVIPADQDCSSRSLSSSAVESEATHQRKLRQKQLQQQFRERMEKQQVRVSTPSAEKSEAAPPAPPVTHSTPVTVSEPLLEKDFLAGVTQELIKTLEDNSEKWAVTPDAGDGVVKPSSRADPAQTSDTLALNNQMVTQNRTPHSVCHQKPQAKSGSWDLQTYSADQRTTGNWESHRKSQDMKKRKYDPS
It is filed as functional, biochemical.

A short description of test [2]: microbe, parasite or virus in culture. In kind it is functional. Particulars: Mycobacterium tuberculosis.
Test [3] in a line: Luminescence Cell-Based Dose Retest to Confirm Inhibitors of Cancer Stem Cells. [Related pubchem assays (depositor defined):AID2717, AID2721]. Conditions: Homo sapiens. It is filed as functional.
A further test has as its target T2, Leucine aminopeptidase (Plasmodium falciparum 3D7, UniProt Q8IL11).
T2 sequence (Q8IL11 whole entry): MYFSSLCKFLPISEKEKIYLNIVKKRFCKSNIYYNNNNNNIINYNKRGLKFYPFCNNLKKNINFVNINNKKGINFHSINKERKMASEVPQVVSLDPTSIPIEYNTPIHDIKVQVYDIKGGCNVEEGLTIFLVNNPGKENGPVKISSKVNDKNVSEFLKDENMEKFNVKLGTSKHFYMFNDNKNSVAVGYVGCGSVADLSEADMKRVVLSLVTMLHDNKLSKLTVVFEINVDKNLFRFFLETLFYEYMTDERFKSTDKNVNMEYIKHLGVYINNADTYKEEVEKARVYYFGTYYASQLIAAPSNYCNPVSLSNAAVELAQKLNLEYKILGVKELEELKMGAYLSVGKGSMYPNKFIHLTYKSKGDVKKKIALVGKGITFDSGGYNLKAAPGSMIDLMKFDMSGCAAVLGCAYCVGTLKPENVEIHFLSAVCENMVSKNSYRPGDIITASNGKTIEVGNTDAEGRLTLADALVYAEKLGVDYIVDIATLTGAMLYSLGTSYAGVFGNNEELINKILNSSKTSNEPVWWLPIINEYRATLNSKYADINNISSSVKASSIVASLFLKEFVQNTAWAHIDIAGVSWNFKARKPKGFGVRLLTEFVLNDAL
Description: P. falciparum M17LAP inhibitors, primary screen, biochemical, fluorogenic H-Leu-NHMec substrate, 1536-well (AID 1619). It is filed as functional.

The nature of test [4]: cells. In kind it is functional, cell-based.
Test [5] can be described thus: cells. It is filed as functional, cell-based. This is another data set of the same source.
Test [6] addresses T3, Calpain-2 catalytic subunit (Sus scrofa, UniProt P43367).
T3 sequence (P43367 whole entry): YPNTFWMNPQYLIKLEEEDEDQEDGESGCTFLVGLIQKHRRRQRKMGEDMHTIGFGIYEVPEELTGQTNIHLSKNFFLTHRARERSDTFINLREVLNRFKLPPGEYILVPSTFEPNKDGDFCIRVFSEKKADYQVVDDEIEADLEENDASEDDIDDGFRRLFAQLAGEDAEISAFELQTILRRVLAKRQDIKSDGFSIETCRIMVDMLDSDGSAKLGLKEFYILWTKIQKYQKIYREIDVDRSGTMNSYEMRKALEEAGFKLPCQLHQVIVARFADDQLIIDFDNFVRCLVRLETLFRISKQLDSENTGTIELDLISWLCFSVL
Description: m-calpain protease blockers, concentration series – biochemical, fluorogenic peptide substrate, dose response (AID 1420). In kind it is functional.

In test [7] the test system is BJ. Kind of test: BJ-TERT fibroblast viability loss – cell-based, RAS-independent, luminescence, dose response (AID 1933). It is filed as functional. Particulars: Homo sapiens.
Test [8] deals with BJ. Kind of test: cells. In kind it is functional, cell-based. Conditions: Homo sapiens.
Test [9] can be described thus: DRD fibroblast viability loss – cell-based, non-viral oncogenic, luminescence, dose response (AID 1934). Particulars: Homo sapiens. It is filed as functional.
Test [10] in a line: alpha-synuclein stem-loop luciferase translation blockers – H4 neuroglioma cells, luminescence, confirmation (AID 1988). In kind it is functional, cell-based.
Test [11] is described as follows: luciferase reporter signal suppression in cells – H4 neuroglioma cells, luminescence, dose response (AID 1990). In kind it is functional, cell-based. Background: In a reporter assay the amount or activity of a reporter protein is the signal.
Test [12] deals with BJ. Description: BJ-TERT-LT-ST fibroblast viability loss – cell-based, RAS-independent, luminescence, dose response (AID 1935).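 Further: BJ fibroblasts immortalized with TERT plus LT and ST oncogenes.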 It is filed as functional. Particulars: Homo sapiens.
Test [13] in a line: Luminescence Cell-Based Dose Response HTS to Identify Inhibitors of 5'UTR Stem-Loop Driven Prion Protein mRNA Translation in H4 Neuroglioblastoma Cells. [Related pubchem assays: 1827 (Project Summary), 1813 (Primary HTS)]. In kind it is functional.
Test [14] is described as follows: A cytotoxicity screen of small molecule inhibitors of the PhoP region in Salmonella typhi identified in the primary screen. [Related pubchem assays: 1850, 1864, 1985 ]. It is filed as functional.
Test [15] has as its target T4, Fatty acid synthase (Homo sapiens, UniProt P49327). Kind of test: inhibition of human FAS-TE enzyme activity – biochemical, kinetic fluorescence intensity, dose response (AID 624326).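 Further: rate of fluorescence rise from hydrolysis of a fluorogenic O-methyl fluorescein ester substrate.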 In kind it is functional.
Test [16] concerns the target T4, Fatty acid synthase. Kind of test: inhibition of human FAS-TE enzyme activity – biochemical, endpoint fluorescence intensity, uHTS hits, dose response (AID 624327).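 Further: fluorescence from hydrolysis of an O-methyl fluorescein acyl ester substrate by the enzyme.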 In kind it is functional.
In test [17] the test system is Streptococcus sp. 'group A'. Kind of test: Streptococcus pyogenes SK(-)GAS viability under kanamycin – luminescence, BacTiterGlo, confirmation, counter-screen for streptokinase expression inhibitor project, dose response (AID 1900). It is filed as functional, organism-based.
In another test the test system is Streptococcus. Kind of test: GAS UMAA2166 growth inhibition – luminescence, BacTiterGlo, counter-screen for streptokinase expression inhibitor project, dose response (AID 1915).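 Further: potency for reduction of bacterial viability or growth.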 In kind it is functional, organism-based. In general terms: A counterscreen serves to expose hits that act by an unwanted route or on another target.
Test [18] has as its target Induced myeloid leukemia cell differentiation protein Mcl-1 (Homo sapiens, UniProt Q07820). It is filed as functional.

T4 sequence (P49327 whole entry): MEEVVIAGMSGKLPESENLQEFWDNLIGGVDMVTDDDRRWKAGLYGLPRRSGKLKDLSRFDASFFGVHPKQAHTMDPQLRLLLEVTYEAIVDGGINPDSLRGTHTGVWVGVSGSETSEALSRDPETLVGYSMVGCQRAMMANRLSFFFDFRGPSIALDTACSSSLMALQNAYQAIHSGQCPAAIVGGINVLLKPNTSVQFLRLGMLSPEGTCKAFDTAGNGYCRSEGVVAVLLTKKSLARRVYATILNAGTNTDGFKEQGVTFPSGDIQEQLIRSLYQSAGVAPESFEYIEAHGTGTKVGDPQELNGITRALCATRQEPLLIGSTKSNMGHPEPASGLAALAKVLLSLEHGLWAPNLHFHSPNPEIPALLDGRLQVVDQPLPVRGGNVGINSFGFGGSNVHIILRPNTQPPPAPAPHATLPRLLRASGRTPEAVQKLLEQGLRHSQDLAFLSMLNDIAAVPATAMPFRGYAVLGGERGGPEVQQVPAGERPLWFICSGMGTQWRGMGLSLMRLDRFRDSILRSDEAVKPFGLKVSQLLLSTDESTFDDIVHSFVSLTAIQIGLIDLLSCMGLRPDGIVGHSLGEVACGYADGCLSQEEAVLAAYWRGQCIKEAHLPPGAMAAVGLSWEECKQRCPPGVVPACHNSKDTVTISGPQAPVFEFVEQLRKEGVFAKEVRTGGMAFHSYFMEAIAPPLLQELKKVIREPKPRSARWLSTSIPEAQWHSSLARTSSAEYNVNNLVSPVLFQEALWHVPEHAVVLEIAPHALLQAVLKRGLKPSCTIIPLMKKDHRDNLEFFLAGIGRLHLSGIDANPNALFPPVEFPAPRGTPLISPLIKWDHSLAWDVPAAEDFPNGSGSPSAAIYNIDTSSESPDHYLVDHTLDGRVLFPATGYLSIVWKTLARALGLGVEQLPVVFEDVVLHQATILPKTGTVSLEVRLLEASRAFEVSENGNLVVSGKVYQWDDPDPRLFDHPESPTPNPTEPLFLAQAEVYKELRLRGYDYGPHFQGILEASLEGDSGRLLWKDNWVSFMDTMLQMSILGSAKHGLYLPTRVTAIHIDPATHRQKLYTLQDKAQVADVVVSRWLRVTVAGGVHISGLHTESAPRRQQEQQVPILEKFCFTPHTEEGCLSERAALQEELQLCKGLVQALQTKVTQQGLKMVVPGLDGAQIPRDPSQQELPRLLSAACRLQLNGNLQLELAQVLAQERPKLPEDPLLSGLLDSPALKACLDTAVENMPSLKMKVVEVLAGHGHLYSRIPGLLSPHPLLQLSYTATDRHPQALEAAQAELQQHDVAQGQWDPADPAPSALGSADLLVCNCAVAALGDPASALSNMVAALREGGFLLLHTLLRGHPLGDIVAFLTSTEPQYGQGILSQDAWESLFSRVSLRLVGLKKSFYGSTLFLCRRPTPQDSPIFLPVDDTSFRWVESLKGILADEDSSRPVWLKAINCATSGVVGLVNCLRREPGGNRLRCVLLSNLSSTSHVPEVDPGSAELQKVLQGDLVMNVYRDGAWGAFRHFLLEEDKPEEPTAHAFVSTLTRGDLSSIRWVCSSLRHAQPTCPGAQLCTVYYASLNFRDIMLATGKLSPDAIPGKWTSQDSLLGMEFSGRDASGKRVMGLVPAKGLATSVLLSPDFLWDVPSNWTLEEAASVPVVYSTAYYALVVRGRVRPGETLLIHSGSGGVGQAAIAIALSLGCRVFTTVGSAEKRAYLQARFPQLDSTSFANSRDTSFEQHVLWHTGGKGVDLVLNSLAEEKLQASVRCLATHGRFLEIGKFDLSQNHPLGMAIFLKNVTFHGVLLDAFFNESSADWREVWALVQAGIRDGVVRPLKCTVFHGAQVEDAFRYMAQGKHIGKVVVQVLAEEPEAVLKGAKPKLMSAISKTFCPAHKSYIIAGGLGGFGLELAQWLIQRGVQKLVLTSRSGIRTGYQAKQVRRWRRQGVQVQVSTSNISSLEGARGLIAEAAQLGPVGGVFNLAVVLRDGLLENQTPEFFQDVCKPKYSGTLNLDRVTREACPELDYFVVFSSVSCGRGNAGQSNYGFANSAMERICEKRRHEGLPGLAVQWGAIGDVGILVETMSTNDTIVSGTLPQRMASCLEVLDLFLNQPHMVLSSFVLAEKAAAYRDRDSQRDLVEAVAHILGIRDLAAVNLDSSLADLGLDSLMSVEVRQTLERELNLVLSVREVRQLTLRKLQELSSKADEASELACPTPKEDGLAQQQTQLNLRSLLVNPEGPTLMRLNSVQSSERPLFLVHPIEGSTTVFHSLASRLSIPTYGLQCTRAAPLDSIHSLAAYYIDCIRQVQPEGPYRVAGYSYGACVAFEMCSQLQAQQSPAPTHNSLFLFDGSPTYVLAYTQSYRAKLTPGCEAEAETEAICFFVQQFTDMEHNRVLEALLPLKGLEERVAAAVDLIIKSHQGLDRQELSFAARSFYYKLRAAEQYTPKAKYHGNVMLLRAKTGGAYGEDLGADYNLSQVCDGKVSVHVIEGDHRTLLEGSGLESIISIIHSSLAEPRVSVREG
Induced myeloid leukemia cell differentiation protein Mcl-1, sequence (Q07820 whole entry): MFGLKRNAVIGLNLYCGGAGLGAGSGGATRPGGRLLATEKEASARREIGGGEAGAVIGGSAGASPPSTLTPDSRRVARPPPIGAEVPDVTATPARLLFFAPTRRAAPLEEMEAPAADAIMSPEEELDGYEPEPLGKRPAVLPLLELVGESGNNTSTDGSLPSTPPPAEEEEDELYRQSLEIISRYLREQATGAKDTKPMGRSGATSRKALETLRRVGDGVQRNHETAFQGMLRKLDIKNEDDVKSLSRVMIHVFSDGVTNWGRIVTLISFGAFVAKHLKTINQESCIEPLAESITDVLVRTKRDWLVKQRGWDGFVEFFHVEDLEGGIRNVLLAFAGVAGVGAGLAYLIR

In general, AC50 refers to the concentration at which the activity in the assay is half-maximal. `COc1ccccc1C1c2ccc3ccccc3c2Oc2ncn(CCN(C)C)c(=N)c21` (centres undefined): the AC50 in test [1] was 20.6 µM (active); in test [3], 2.72 µM (active). Moreover, the CC50 in [2] is 5.8 µM (active).
The IC50 is the concentration that gives 50% inhibition. For `O=C(CN1C(=O)S/C(=C/C=C/c2ccccc2)C1=O)Nc1ccc(C(=O)O)cc1`, the IC50 at Leucine aminopeptidase is 24.5 µM (active).
As usually defined, the EC50 is the concentration needed to bring the measured effect to its halfway point. Turning to `CCCCCC(=O)NNC(=S)NC(=O)c1cccc([N+](=O)[O-])c1`, on Leucine aminopeptidase, the IC50 is 24.4 µM (active). Further, the EC50 in “cells [4]” and in “cells [5]” was > 350 µM (not active) in each case.
Turning to `CCN(CC)CCNc1nc(-c2cccs2)c(CC(=O)O)s1`, in [1], the AC50 is 14 µM (active).
Regarding `CSCCC(NC(=O)c1c(C)oc2c1CCCC2)C(=O)O` (centres undefined), on Leucine aminopeptidase, the IC50 was 35.9 µM (active).
As for `CC1Cc2ccccc2N1C(=O)COC(=O)C1(c2ccccc2F)CCCC1` (centres undefined), the IC50 in [6] is 7.23 µM (not active).
As to `CCOc1c(Br)cc(CNc2ccc3c(c2)OCCO3)cc1OC`, the EC50 in the test with BJ [7] is 2.12 µM (active); in the test on BJ [8], 17.7 µM (active); in test [9], 1.29 µM (active); in test [10], 0.31 µM (active); in [11], 4.32 µM (active); with BJ [12], 1.41 µM (inconclusive). Moreover, the EC50 in test [13] is 3.63 µM (active).
`Cc1cccc(NS(=O)(=O)c2ccc3c(c2)OCCO3)c1`: the EC50 in [14] is > 50 µM (active).
For `Cc1c(OCC(=O)NC(Cc2ccc(Cl)cc2)C(=O)O)ccc2c(-c3ccccc3)cc(=O)oc12` (centres undefined), the IC50 on Fatty acid synthase [15] is 13.3 µM (active); at Fatty acid synthase [16] it was 6.45 µM (active).
For the compound `CCN1CCN(CCCNC(=O)C2CCN(c3nnc(-n4c(C)ccc4C)s3)CC2)CC1`, in test [1], the AC50 is 9.22 µM (active).
With `NC1(C(=O)O)CCCc2ccc(N(CCCl)CCCl)cc21` (centres undefined), the AC50 in test [1] was 16 µM (active).
For the compound `O=C(O)c1ccc(N/N=C/c2ccc(-c3ccc(Cl)cc3Cl)o2)cc1`, the figures for the IC50 (on Fatty acid synthase [15]; on Fatty acid synthase [16]; in test [18]) were 3.65 µM (active), 7.07 µM (active) and 3.56 µM (active), respectively. For the same compound, the EC50 in test [17] was 1.46 µM (active); in the test on Streptococcus, 2.33 µM (active).
Consider `O=C(N/N=C/c1ccc(N2CCCC2)c([N+](=O)[O-])c1)c1cccnc1`, for which the EC50 in test [14] was > 50 µM (active).
As to `O=C(Cn1cc(/C=N/O)c2ccccc21)N1CCOCC1`, the IC50 on Leucine aminopeptidase is 78.9 µM (active).
